Source: patent US7825094B2, “Method of treatment for cancers associated with elevated HER 2 levels” (Sloan-Kettering Institute for Cancer Research, priority 2001, dated 2010)

Key:
[1] = system: cyclin D1, cyclin D3, cdk4, AKT, Raf-1 in BT-474 cells; experiment: Immunoblot of protein expression in BT-474 (HER-2+++) cells; format: cell-based, human; conditions: 50 nM or 500 nM
Description: (§1) Levels of mitotic cyclin expression, HER-2 expression, AKT expression and Raf1 expression in MCF-7 (HER-2 negative) or BT-474 (HER-2+++) cell lines treated with CNF-101 (17-AAG) were assessed using immunoblot analysis. Immunoblot analysis of lysates from cells treated with either 50 nM or 500 nM CNF-101 (17-AAG) were analyzed by Western blot using anti-cyclin D1, anti-cyclin D3, anti-cyclin cdk4, anti-AKT or anti-Raf1 antibodies. All antibodies were obtained from Santa Cruz Biotechnology (Santa Cruz, Calif., USA). Treated cells were harvested, washed with PBS and lysed in NP40 lysis buffer (50 mM Tris pH7.4, 1% NP40,150 mM NaCl, 40 mM NaF. 1 mM Na3VO4, 1 mM phenylmethylsulfonylfluoride, and 10 μg/ml each of leupeptin, aprotinin and soybean trypsin inhibitor) for 30 min on ice. Lysates were centrifuged at 15,000×g for 10 min and protein concentration determined by bicinchoninic acid protein assay (Pierce). Equal amounts of total protein were resolved by SDS-PAGE and transferred onto Immobilon PVDF membranes (Millipore) by electroblotting. Blots were blocked overnight in 5% nonfat milk in TBS-T (0.1% Tween-20 TBS, 10 mM Tris pH 7.4, 150 mM NaCl) at 4° C. and subsequently probed with either anti-HER-2, anti-cylin D1, anti-cyclin D3, anti cdk4, anti-AKT or anti-Raf1 antibodies. Following incubation with HRP-conjugated secondary antibodies, proteins were detected by chemiluminescence (Amersham).

[2] = system: AKT and phospho-AKT in BT-474, SKBR-3, U87, MCF-7, MDA-468 cells; experiment: Western blot of AKT and phospho-AKT in a panel of cell lines; format: cell-based, human
Description: (§2) Cells were treated with 1 uM CNF-101 (17-AAG) for 24 hrs, washed, harvested and lysed in NP-40. Lysates were resolved by SDS-PAGE, transferred onto Immobilon PVDF membranes, blocked in 5% nonfat milk and probed with antibodies to AKT or […] phosphorylated AKT (phospho-AKT) from Upstate. Following incubation with HRP-conjugated secondary antibodies, proteins were detected using chemiluminescnce (Amersham). AKT is a key kinase in tumor cells.

[3] = system: AKT kinase activity in HER-2-low MCF-7 line; experiment: AKT kinase activity after immunoprecipitation (GSK-1 substrate, 32-P ATP) in MCF-7 cells; format: cell-based, human; conditions: ten times 100 nM
Description: as §2, with “(Amersham). AKT kinase activity was assessed following immunopreciptation by a standard kinase assay with the recombinant AKT substrate protein […] and 32-P labelled ATP. AKT is a” for “(Amersham). AKT is a”

[4] = system: HER-2, AKT and phospho-AKT in BT-474 xenografts; experiment: Western blot of HER-2, AKT and phospho-AKT in BT-474 breast carcinoma xenografts; format: in vivo, Swiss nu/nu mice; conditions: 50 mg/kg, intraperitoneally
Description: BT-474 breast tumor cells were implanted subcutaneously on the flank of Swiss nu/nu mice and allowed to become established to a diameter of 5 mm. Animals were treated intraperitoneally with optimal doses of CNF-101 (17-AAG) and tumors removed at the indicated times thereafter. Tumor tissue was snap-frozen at the time of removal. For analysis, tissues were rapidly thawed, lysed and assaysed for HER-2, AKT and phospho-AKT by Western blotting.

[5] = system: cyclin D1, cyclin D3, cdk4, AKT, Raf-1 in MCF-7 cells; experiment: Immunoblot of protein expression in MCF-7 (HER-2 negative) cells; format: cell-based, human; conditions: 50 nM or 500 nM
Description: as §1

[6] = system: human cancer cell lines BT-474, SKBR-3, SKOV-3, MCF-Her2, MCF-7, MDA-468, MDA-231, T47-D, MDA435; experiment: Antiproliferative effect on cancer cell lines expressing different amounts of HER-2 (ethidium bromide nuclei staining, flow cytometry); format: cell-based
Description: Human cancer cell lines BT-474, SKBR-3, SKOV-3, MCF-Her2, MCF-7, MDA-468, MDA-231, T47-D, and MDA435 were obtained from the American Type Culture Collection (“ATCC;” Manassas, Va., USA). Cell lines were maintained in […] medium, supplemented with 5% fetal calf serum (BRL), 2 mM glutamine, and 50 U/ml each of penicillin and streptomycin, at 37° C. in 5% CO2.
Cells were treated for 24 hours with CNF-101 (17-AAG) at concentrations of 1 to 1000 nM. Following treatment, the nuclei were stained with ethidium bromide and analyzed by flow cytometry. Nuclei were isolated for flow cytometry assays, stained with ethidium bromide and analyzed using a Becton Dickinson fluorescence-activated cell sorter. Statistical data was obtained using Multicycle program software.
Those cell lines expressing the highest levels of HER-2 were the most sensitive to CNF-101 (17-AAG) (FIG. 1).

[7] = system: AKT and phospho-AKT in HER-2+++ and HER-2- cells; experiment: Western blot of AKT and phospho-AKT in HER-2+++ and HER-2- cells; format: cell-based, human; conditions: 1 uM, 24 hrs
Description: as §2, with “(Amersham). AKT kinase activity was assessed following immunopreciptation by a standard kinase assay with the recombinant AKT substrate protein […] and 32-P labelled ATP. AKT is a” for “(Amersham). AKT is a”

[8] = system: AKT kinase activity in high HER-2 (SKBr3) cells; experiment: AKT kinase activity after immunoprecipitation (GSK-1 substrate, 32-P ATP) in SKBr3 cells; format: cell-based, human; conditions: 100 nM
Description: Lysates were resolved by SDS-PAGE, transferred onto Immobilon PVDF membranes, blocked in 5% nonfat milk and probed with antibodies to AKT or […] phosphorylated AKT (phospho-AKT) from Upstate. Following incubation with HRP-conjugated secondary antibodies, proteins were detected using chemiluminescnce (Amersham). AKT kinase activity was assessed following immunopreciptation by a standard kinase assay with the recombinant AKT substrate protein […] and 32-P labelled ATP. AKT is a key kinase in tumor cells.

[9] = HER-2 overexpressing cells (BT-474)
[10] = 1 uM, 24 hrs, panel of cell lines
[11] = HER low expressing cells (MCF-7)

## C=CCNC1=C2C[C@@H](C)C[C@H](OC)[C@H](O)[C@@H](C)/C=C(\C)[C@H](OC(N)=O)[C@@H](OC)/C=C\C=C(/C)C(=O)NC(=CC1=O)C2=O [CNF-101 (17-AAG), 17-allylamino-17-demethoxygeldanamycin]
[1]; BT-474
  cyclin D1 protein level: rapid decrease
  cyclin D3 protein level: rapid decrease
[1]; BT-474, 0, 4, 12, 24 hours
  Raf-1 (HSP90 client protein) level: degradation
[1]; [9]
  AKT protein level: not affected
  cdk4 protein level: not affected
[2]; [10]
  AKT protein level: does not cause significant loss of the protein
  phospho-AKT level: disappears from the treated cells
[2]; 1 uM, multiple cell lines
  AKT activity: causes loss of AKT activity in multiple cell lines
[2]; high HER-2: BT-474, SKBR-3, low HER-2: U87, MCF-7, MDA-468
  loss of AKT activity in high HER-2 lines versus low HER-2 lines: much more rapid and complete loss of AKT activity
[3]
  time to cause even partial loss of AKT kinase activity: 12 h
[4]
  AKT protein levels in xenograft: remained constant
  HER-2 protein levels in xenograft: declined
  phosphorylated ("active") AKT protein in xenograft: declined rapidly
[5]; [11]
  AKT protein level: not affected
  cdk4 protein level: not affected
[5]; MCF-7 (low HER-2)
  decrease in cyclin D1 protein level: not seen
  decrease in cyclin D3 protein level: not seen
[5]; MCF-7, 0, 4, 12, 24 hours
  Raf-1 (HSP90 client protein) level: degradation
[6]; 24 hours, 1 to 1000 nM, all cell lines tested (FIG. 1)
  growth arrest: caused growth arrest in all the cell lines tested
[6]; MCF-7 vs. MCF-7/HER-2
  difference in sensitivity between congenic pair: 10 fold
[6]; high HER-2: BT-474, SKBR-3, SKOV-3, MDA435, low HER-2: MDA-468, MDA-231, T47D
  sensitivity of high HER-2 lines versus low HER-2 lines: markedly more sensitive
[7]
  AKT protein level: does not cause significant loss of the protein
  phospho-AKT level: disappears from the treated cells
[8]
  time to complete loss of AKT activity: ≤ 3 h
